# Test system: cardiac gene expression
# Test: Microarray analysis of cardiac gene expression (GeneChip Mouse Genome 430 2.0)
# Assay type: in vivo, mice
# Settings: for FC Transglutaminase 2, C polypeptide (Tgm2): CH vs normal FC 2.0
# Description: Microarray Sample Preparation and Analysis. Animal hearts were rapidly removed, and the atria and right ventricles were cut and immediately plunged into TRIzol Reagent (Life Technologies). Total RNA was isolated following the manufacturer's instructions, purified by phenol-chloroform extraction and then ethanol precipitation, and 20 μg further processed for microarray analysis. Briefly, cDNA synthesis, in vitro transcription, and labeling and fragmentation to produce the oligonucleotide probes were performed as instructed by the GeneChip manufacturer (Affymetrix). The probes were first hybridized to a test array (Affymetrix) and then to the GeneChip Mouse Genome 430 2.0 Array, using the GeneChip Hybridization Oven 640. The chips were washed in a GeneChip Fluidics Station 450 (Affymetrix), and the results were visualized with a GeneChip G7 scanner (Affymetrix). RMA normalization, pairwise comparisons, Student's t test and Benjamini and Hochberg correction were subsequently performed using GeneSifter (VizX Labs, Seattle, Wash.) and Spotfire DecisionSite 8.3 (Spotfire, Inc., Somerville, Mass.).
# Effects on Gene Expression Profile. […] One mouse heart was used for each array, and was performed in triplicate, generating a total of 12 arrays. GeneSifter was used to perform RMA normalization, pairwise comparisons of averaged signal intensity values, and Student's t-test with Benjamini and Hochberg correction, and Spotfire was used to perform pairwise comparisons. […] Additionally, genes that were altered between any two N or cardiac hypertrophy samples were removed, as these alterations most likely represented normal variations between mice.
compound,measurement,setting,value
C[C@H]1c2cccc(O)c2C(=O)C2=C(O)[C@]3(O)C(=O)C(C(N)=O)=C(O)[C@@H](N(C)C)[C@@H]3[C@@H](O)[C@@H]21 [doxycycline],FC IBR domain containing 2 (Ibrdc2),"GenBank AV274826, vs mice given only isoproterenol",−2.1
same,FC Xanthine dehydrogenase (Xdh),"GenBank AV286265, heart, drug + isoproterenol vs isoproterenol-only mice, CH vs normal FC 3.9",−3.0 fold
same,FC UDP-N-acetyl-alpha-D-galactosamine:polypeptide N-acetylgalactosaminyltransferase-like 2 (Galntl2),"GenBank AV290688, heart, drug + isoproterenol vs isoproterenol-only mice, CH vs normal FC 3.3",−2.8 fold
same,FC Ras association (RalGDS/AF-6) domain family 4 (Neuropeptide signaling),"GenBank AV291679, vs mice given only isoproterenol",−2.2
same,FC Syntaxin 3 (Stx3),"GenBank AV296217, vs mice given only isoproterenol",−1.6
same,FC EST,"GenBank AV318727, vs mice given only isoproterenol",2.6
same,FC F-box-WD40 repeat protein 6 (Fbxw6),"GenBank AV338062, vs mice given only isoproterenol",1.9
same,FC EST,"GenBank AW123929, vs mice given only isoproterenol",−1.8
same,FC EST,"GenBank AW208574, vs mice given only isoproterenol",−1.9
same,FC Myristoylated alanine rich protein kinase C substrate (Marcks),"GenBank AW546141, vs mice given only isoproterenol",1.7
same,FC Transmembrane protein 23 (Tmem23),"GenBank AW985925, heart, drug + isoproterenol vs isoproterenol-only mice, CH vs normal FC 2.8",−2.1 fold
same,"FC Nuclear factor, interleukin 3, regulated (Nfil3)","GenBank AY061760, vs mice given only isoproterenol",−2.5
same,"FC RasGEF domain family, member 1B (Rasgef1b)","GenBank BB003229, vs mice given only isoproterenol",−2.4
same,"FC Transglutaminase 2, C polypeptide (Tgm2)","GenBank BB041811, heart, drug + isoproterenol vs isoproterenol-only mice",−1.7 fold
same,FC EST,"GenBank BB069531, vs mice given only isoproterenol",2.1
same,FC G protein-coupled receptor 116 (Gprl16),"GenBank BB083808, vs mice given only isoproterenol",−2.0
same,FC EST,"GenBank BB096843, vs mice given only isoproterenol",−1.8
same,FC RAN binding protein 9 (Ranbp9),"GenBank BB106402, vs mice given only isoproterenol",−2.6
same,FC EST,"GenBank BB109391, vs mice given only isoproterenol",−1.8
same,FC Tumorsuppressor St7-like (St7l),"GenBank BB122084, heart, drug + isoproterenol vs isoproterenol-only mice, CH vs normal FC 2.3",−2.1 fold
same,FC Kyphoscoliosis peptidase (Ky),"GenBank BB126077, vs mice given only isoproterenol",1.8
same,FC EST,"GenBank BB127176, vs mice given only isoproterenol",−1.7
same,FC Endothelial differentiation sphingolipid G-protein-coupled receptor 1 (Edg1),"GenBank BB133079, vs mice given only isoproterenol",−2.4
same,FC Interferon induced transmembrane protein 6 (Ifitm6),"GenBank BB193024, vs mice given only isoproterenol",−3.3
same,"FC RAS, dexamethasone-induced 1 (Rasd1)","GenBank BB217136, vs mice given only isoproterenol",−3.3
same,FC EST,"GenBank BB219003, vs mice given only isoproterenol",−2.1
same,"FC Inner membrane protein, mitochondrial (Immt)","GenBank BB222675, vs mice given only isoproterenol",4.9
same,FC EST,"GenBank BB236747, vs mice given only isoproterenol",−1.7
same,"FC Procollagen-proline, 2-oxoglutarate 4-dioxygenase (proline 4-hydroxylase), alpha 1 polypeptide (P4ha1)","GenBank BB253720, vs mice given only isoproterenol",1.9
same,FC MAD homolog 1 (Smad1),"GenBank BB257769, vs mice given only isoproterenol",−1.9
same,FC EST,"GenBank BB312992, vs mice given only isoproterenol",−2.1
same,FC Zi finger and BTB domain containing 16 (Zbtb16),"GenBank BB326368, heart, drug + isoproterenol vs isoproterenol-only mice, CH vs normal FC 5.1",−1.8 fold
same,FC Kelch-like 24 (Khl24),"GenBank BB328076, vs mice given only isoproterenol",−2.2
same,FC Tissue inhibitor of metalloproteinase 4 (Timp4),"GenBank BB328405, heart, drug + isoproterenol vs isoproterenol-only mice, CH vs normal FC 5.6",−2.8 fold
same,FC Leucine-rich repeat-containing 8c (Lrrc8c),"GenBank BB333759, vs mice given only isoproterenol",−1.7
same,FC EST,"GenBank BB335101, vs mice given only isoproterenol",2.2
same,FC Insulin receptor substrate 1 (Irs1),"GenBank BB345784, vs mice given only isoproterenol",−1.7
same,FC Tribbles homolog 2 (Trib2),"GenBank BB354684, heart, drug + isoproterenol vs isoproterenol-only mice, CH vs normal FC −1.9",1.6 fold
same,FC EST,"GenBank BB374879, vs mice given only isoproterenol",2.7
same,FC Transcription factor Dp 2 (Tfdp2),"GenBank BB405795, heart, drug + isoproterenol vs isoproterenol-only mice, CH vs normal FC 2.8",−2.2 fold
same,"FC Inositol 1,4,5-trisphosphate 3-kinase B (Itpkb)","GenBank BB434111, vs mice given only isoproterenol",2.5
same,FC EST,"GenBank BB476794, vs mice given only isoproterenol",1.9
same,"FC Histone 1, H1e (Hist1h2be)","GenBank BB490701, vs mice given only isoproterenol",−1.7
same,"FC RNA, U22 small nucleolar","GenBank BB493265, vs mice given only isoproterenol",−1.8
same,FC F-box and leucine-rich repeat protein 13 (Fbxl13),"GenBank BB503935, vs mice given only isoproterenol",1.9
same,"FC OTU domain, ubiquitin aldehyde binding 1 (Otub1)","GenBank BB534069, vs mice given only isoproterenol",2.0
same,FC EST,"GenBank BB535847, vs mice given only isoproterenol",−2.0
same,"FC Transglutaminase 2, C polypeptide (Tgm2)","GenBank BB550124, heart, drug + isoproterenol vs isoproterenol-only mice",−1.7 fold
same,FC Von Willebrand factor homolog (Vwf),"GenBank BB667216, heart, drug + isoproterenol vs isoproterenol-only mice, CH vs normal FC 2.3",−1.7 fold
same,FC Dehydrogenase E1 and transketolase domain containing 1 (Dhtkd1),"GenBank BB667395, vs mice given only isoproterenol",−2.1
same,FC Fibroblast growth factor receptor 3 (Fgfr3),"GenBank BB732903, vs mice given only isoproterenol",−2.1
same,FC Period homolog 3 (Per3),"GenBank BB757992, vs mice given only isoproterenol",2.3
same,"FC Serine palmitoyltransferase, long chain base subunit 2 (Sptlc2)","GenBank BB794710, vs mice given only isoproterenol",−2.1
same,FC Nucleoplasmin 3 (Npm3),"GenBank BB811478, vs mice given only isoproterenol",2.1
same,FC Heterogeneous nuclear ribonucleoprotein R (Hnrpr),"GenBank BB822465, vs mice given only isoproterenol",1.8
same,FC Integrator complex subunit 3 (Ints3),"GenBank BC003209, vs mice given only isoproterenol",−2.2
same,"FC Solute carrier family 39 (iron-regulated transporter), member 1 (Slc40a1)","GenBank BC003438, vs mice given only isoproterenol",−2.1
same,"FC Transforming, acidic coiled-coil containing protein 2 (Tacc2)","GenBank BC004057, heart, drug + isoproterenol vs isoproterenol-only mice, CH vs normal FC 2.8",−2.1 fold
same,FC Lutheran blood group (Auberger b antigen iluded) (Bcam),"GenBank BC004826, vs mice given only isoproterenol",1.6
same,"FC Tubulin, beta 2c (Tubb2c)","GenBank BC005547, heart, drug + isoproterenol vs isoproterenol-only mice, CH vs normal FC −1.7",2.5 fold
